Experimental data from patent US7531320B2, “Modulation of β-catenin/TCF-activated transcription” (priority 2003, dated 2009).

Test system: fra-1
Assay: Real Time RT-PCR in SW480 cells, fra-1
Type: cell-based, human
Details: 25 μM; for ΔCT fra-1: relative to β-actin
Protocol: The RNeasy Midi Kit (Qiagen) was used for RNA extraction and Real Time RT-PCR was performed according to the protocol provided with the SYBR Green PCR Master Mix Kit (Perkin Elmer Biosystems, Shelton, Conn.). The primers used for cyclin D1, axin2, hnkd, c-myc, c-jun, and fra-1 amplifications were: cyclin D1 forward primer:5′-[…]-CCTGCTG-3′ (SEQ ID NO: 32) reverse primer: 5′-[…]-3′ (SEQ ID NO: 33) leading to a product size of approximately 300 bp; axin2 forward primer: 5′-[…] GGAAA-CT-3′ (SEQ ID NO: 34) and reverse primer: 5′-[…]-GAGA-3′ (SEQ ID NO: 35); hnkd forward primer: 5′-[…] TTGCGT-3′ (SEQ ID NO: 36) and the reverse primer: 5′-[…] ACGT-3′ (SEQ ID NO: 37); c-myc forward primer: 5′-GAA-[…] CTGC-3′ (SEQ ID NO: 38) and reverse primer: 5′-[…]-G-3′ (SEQ ID NO: 39); c-jun forward primer: 5′-[…]-3′ (SEQ ID NO: 40) and reverse primer: 5′-[…]-3′ (SEQ ID NO: 41); fra-1 forward primer: 5′-ACC-[…]-[…]-3′ (SEQ ID NO: 42) and reverse primer: 5′-[…]-TT-3′ (SEQ ID NO: 43). β-actin was used for normalization. […]
1 μg of mRNA, for each time point, was subjected to Real Time RT-PCR. Expression level of endogenous cyclin D1, c-myc, fibronectin, hnkd, axin2, c-jun, and BMP-4 were measured relative to β-actin. Quantitation of The ΔCycle of Threshold (CT) values was determined by subtracting the average values of each set by the corresponding average values obtained for β-actin. […]
The cyclin D1 gene is inappropriately expressed in many different tumor types, and is known to be a direct target of the Wnt/β-catenin pathway (Shtutman et al., “The cyclin D1 gene is a target of the beta-catenin/LEF-1 pathway,” Proc. Natl. Acad. Sci. USA 96:5522-27 (1999); Tetsu et al., “Beta-catenin regulates expression of cyclin D1 in colon carcinoma cells,” Nature 398:422-26 (1999)). […] Expression level of endogenous cyclin D1, c-myc, fibronectin, hnkd, axin2, c-jun, and BMP-4 were measured relative to β-actin. Quantitation of The ΔCycle of Threshold (CT) values was determined by subtracting the average values of each set by the corresponding average values obtained for β-actin. […]

O=C1C(Cc2ccc(O)cc2)N2C(=O)CCN(C(=O)NCc3ccccc3)C2CN1Cc1cccc2ccccc12 (stereo not drawn) [COMPOUND 1]
mRNA fra-1 (direction): ↑ | ΔCT fra-1 (4 hours): −1.0 | ΔCT fra-1 (8 hours): −1.4
